The text below walks through data of patent publication US20090270394A1, “CYCLYLAMINE DERIVATIVES AS CALCIUM CHANNEL BLOCKERS” (priority 2008, published 2009).

This test addresses T1, Human Cav2.2 channels (Homo sapiens, UniProt Q00975).
T1 construct: expressed in transfected cells
Nature of the test: Fluorescent assay for Cav2.2 channels using potassium depolarization to initiate channel opening. To be noted: for inhibition at 10 µM: 10 μM compound, read-out: Cav 2.2 Activity % Inh at 10 μM; for inhibition at 30 µM: 30 μM compound, read-out: Cav 2.2 Activity % Inh at 30 μM; for IC50: 30 mM K (block of open and inactivated channels), read-out: Cav 2.2 Activity IC50 at 30 mM K. The format is cell-based. An outline of the steps: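 HEK293 cells stably expressing human Cav2.2 with alpha2-delta and beta subunits plus Kir2.3, dye-loaded, then held 30 min at 25° C. in 4, 12, 25 or 30 mM K+ pre-polarization buffer with compound.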

T1 sequence (Q00975 whole entry): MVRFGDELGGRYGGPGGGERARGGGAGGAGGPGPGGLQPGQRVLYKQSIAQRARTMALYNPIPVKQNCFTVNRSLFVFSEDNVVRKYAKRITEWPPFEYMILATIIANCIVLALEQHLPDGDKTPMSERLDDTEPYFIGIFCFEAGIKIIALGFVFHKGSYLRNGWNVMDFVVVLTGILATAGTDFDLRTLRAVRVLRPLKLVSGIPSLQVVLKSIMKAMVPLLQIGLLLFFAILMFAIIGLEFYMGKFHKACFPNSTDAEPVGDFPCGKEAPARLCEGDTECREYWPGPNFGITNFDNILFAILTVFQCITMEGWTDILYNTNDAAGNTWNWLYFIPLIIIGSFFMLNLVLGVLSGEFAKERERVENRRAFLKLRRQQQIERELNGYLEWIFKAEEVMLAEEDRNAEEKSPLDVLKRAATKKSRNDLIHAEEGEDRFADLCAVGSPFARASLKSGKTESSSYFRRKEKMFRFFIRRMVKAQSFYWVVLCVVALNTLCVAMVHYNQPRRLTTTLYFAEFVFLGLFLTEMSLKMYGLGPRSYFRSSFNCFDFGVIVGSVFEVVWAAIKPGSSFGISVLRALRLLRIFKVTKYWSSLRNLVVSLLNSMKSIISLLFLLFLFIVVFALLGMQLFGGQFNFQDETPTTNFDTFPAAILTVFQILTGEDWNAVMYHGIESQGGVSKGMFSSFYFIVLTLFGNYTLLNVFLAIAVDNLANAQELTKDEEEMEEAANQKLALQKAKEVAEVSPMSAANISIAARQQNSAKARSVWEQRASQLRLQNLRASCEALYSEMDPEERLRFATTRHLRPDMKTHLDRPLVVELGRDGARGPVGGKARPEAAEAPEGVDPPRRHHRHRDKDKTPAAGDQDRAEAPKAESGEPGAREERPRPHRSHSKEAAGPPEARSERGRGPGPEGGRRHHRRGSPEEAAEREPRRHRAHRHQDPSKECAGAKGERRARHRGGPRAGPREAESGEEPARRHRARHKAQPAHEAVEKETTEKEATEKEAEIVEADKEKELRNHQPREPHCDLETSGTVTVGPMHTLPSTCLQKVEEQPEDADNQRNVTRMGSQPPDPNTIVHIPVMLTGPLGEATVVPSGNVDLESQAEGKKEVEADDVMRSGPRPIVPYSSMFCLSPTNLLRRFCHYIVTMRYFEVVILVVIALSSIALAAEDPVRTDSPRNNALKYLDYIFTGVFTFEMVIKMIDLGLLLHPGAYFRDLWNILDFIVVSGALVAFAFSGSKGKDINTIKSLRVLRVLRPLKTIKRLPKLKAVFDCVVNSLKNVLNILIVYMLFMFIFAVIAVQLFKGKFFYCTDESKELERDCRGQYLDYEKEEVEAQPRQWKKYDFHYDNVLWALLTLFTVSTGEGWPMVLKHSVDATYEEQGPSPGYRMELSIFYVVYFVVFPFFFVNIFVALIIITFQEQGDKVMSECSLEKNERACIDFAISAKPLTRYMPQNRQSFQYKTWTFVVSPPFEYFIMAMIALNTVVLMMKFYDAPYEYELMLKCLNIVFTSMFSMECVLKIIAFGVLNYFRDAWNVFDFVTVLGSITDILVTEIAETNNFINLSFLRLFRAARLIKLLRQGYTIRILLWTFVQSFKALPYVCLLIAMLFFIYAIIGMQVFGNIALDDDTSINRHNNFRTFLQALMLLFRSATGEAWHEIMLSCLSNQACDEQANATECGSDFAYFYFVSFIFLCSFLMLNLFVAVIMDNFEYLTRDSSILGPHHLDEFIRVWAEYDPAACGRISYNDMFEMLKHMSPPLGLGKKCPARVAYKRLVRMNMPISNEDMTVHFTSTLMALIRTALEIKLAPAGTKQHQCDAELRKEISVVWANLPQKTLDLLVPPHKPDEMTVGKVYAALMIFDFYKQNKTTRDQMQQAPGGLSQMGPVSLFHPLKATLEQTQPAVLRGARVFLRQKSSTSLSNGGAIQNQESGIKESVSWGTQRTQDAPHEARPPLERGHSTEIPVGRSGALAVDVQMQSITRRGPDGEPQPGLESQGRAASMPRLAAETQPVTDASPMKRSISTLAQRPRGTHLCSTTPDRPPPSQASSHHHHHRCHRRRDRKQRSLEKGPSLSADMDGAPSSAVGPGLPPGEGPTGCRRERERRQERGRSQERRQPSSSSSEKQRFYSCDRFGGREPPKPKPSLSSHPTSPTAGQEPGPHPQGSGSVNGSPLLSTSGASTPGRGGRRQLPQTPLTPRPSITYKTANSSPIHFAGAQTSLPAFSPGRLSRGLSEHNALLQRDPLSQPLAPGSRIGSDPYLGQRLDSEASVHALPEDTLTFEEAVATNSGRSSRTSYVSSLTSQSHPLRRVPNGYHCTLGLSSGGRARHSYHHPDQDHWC
T1 sequence (P54289 25-1103 partner): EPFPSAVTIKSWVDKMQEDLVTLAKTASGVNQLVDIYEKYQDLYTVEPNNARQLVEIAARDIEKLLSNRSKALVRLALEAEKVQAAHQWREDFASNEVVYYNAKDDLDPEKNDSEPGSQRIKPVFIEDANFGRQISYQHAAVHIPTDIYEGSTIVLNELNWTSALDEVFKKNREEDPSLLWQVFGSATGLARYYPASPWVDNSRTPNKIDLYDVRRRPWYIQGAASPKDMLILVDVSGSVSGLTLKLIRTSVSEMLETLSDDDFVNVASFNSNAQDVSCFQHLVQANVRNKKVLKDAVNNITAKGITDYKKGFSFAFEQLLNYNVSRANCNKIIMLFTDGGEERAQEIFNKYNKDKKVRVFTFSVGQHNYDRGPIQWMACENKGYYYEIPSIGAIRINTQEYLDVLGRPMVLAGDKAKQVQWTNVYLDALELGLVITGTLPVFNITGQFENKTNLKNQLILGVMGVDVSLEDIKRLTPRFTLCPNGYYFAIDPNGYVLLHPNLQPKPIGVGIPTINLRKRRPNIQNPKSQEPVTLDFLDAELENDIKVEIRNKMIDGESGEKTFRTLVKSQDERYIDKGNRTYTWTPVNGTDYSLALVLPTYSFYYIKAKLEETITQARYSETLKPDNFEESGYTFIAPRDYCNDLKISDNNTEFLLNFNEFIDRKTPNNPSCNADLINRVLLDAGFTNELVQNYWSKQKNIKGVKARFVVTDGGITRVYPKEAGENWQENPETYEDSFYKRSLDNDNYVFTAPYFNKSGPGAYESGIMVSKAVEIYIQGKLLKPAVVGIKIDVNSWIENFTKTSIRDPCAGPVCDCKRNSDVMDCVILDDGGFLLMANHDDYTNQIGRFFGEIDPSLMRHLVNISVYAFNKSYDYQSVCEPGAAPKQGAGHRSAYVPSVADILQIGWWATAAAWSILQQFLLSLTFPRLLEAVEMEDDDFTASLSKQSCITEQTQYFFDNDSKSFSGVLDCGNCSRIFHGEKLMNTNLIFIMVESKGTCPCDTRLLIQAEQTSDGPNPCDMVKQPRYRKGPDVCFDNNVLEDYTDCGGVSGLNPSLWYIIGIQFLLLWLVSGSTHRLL
T1 sequence (P54284 whole entry partner): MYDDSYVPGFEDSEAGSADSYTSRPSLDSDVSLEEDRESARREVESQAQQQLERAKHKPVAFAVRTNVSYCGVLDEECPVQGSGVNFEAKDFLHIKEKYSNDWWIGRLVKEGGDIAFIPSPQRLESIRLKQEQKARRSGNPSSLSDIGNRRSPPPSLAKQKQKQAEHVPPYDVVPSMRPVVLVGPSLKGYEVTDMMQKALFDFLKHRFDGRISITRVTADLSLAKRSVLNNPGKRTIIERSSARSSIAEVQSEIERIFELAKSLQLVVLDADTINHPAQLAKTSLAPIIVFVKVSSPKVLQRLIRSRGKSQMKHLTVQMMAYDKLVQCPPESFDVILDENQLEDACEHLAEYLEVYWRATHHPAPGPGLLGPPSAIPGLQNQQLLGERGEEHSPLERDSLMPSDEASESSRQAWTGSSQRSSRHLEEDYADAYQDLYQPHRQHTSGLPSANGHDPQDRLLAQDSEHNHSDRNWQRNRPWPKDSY

As to `CC(C)(C)c1cc(CNC2(C(=O)NCc3cccc(C(F)(F)F)c3)CCCCC2)cc(C(C)(C)C)c1` [Compound 60, 1-(3,5-di-tert-butylbenzylamino)-N-(3-(trifluoromethyl)benzyl)cyclohexanecarboxamide], the inhibition at 10 µM was 74.8% and the inhibition at 30 µM stood at 85.8%.

Take `CC(C)(C)c1cc(C(=O)NC2(C(=O)NCc3ccccc3)CCCCC2)cc(C(C)(C)C#N)c1` [Compound 70, N-(1-(benzylcarbamoyl)cyclohexyl)-3-tert-butyl-5-(2-cyanopropan-2-yl)benzamide]: the inhibition at 10 µM is 89.8%; the inhibition at 30 µM was 96.3%; the IC50 (in general, the concentration needed to halve the response being measured) is 27.4 nM.

As for `Cc1cc(CNC(=O)C2(NC(=O)c3cc(C(C)(C)C)nc(C(C)(C)C)c3)CC2)no1` [Compound 9, 2,6-di-tert-butyl-N-(1-((5-methylisoxazol-3-yl)methylcarbamoyl)cyclopropyl)isonicotinamide], the inhibition at 10 µM was 45.7% and the inhibition at 30 µM amounted to 53.4%.

For `CC(C)(C)NC(=O)C(C)(C)c1ccc(C(=O)NC2(C(=O)NCc3ccccc3)CCCCC2)cc1` [Compound 125, N-(1-(benzylcarbamoyl)cyclohexyl)-4-(1-(tert-butylamino)-2-methyl-1-oxopropan-2-yl)benzamide], the inhibition at 10 µM was 89.6%, the inhibition at 30 µM turned out to be 85.8% and the IC50 worked out at 739 nM.

For the molecule `CC(C)(C)c1cc(C(=O)NC2(C(=O)NCc3ccccc3)CCNCC2)cc(C(C)(C)C)n1` [Compound 64, N-(4-(benzylcarbamoyl)piperidin-4-yl)-2,6-di-tert-butylisonicotinamide], the inhibition at 10 µM was 69.5% and the inhibition at 30 µM came to 104%.

`COc1c(C(C)(C)C)cc(CC(=O)NC2(C(=O)NCc3cccc(C(F)(F)F)c3)CCCCC2)cc1C(C)(C)C` [Compound 15, 1-(2-(3,5-di-tert-butyl-4-methoxyphenyl)acetamido)-N-(3-(trifluoromethyl)benzyl)cyclohexanecarboxamide]: the inhibition at 10 µM came to 48.2% and the inhibition at 30 µM came to 65.9%.

As to `Cc1cc(CNC(=O)C2(NC(=O)c3cc(C(C)(C)C)cc(C(C)(C)C)c3)CCCCC2)no1` [Compound 51, 3,5-di-tert-butyl-N-(1-((5-methylisoxazol-3-yl)methylcarbamoyl)cyclohexyl)benzamide], the inhibition at 10 µM is 106%, the inhibition at 30 µM turned out to be 106% and the IC50 turned out to be 63.5 nM.

Consider `CC(C)(C)c1cc(C(=O)NC2(C(=O)NCc3ccccc3)CCCCC2)cc(C(C)(C)C)c1O` [Compound 65, N-(1-(benzylcarbamoyl)cyclohexyl)-3,5-di-tert-butyl-4-hydroxybenzamide], for which the inhibition at 10 µM turned out to be 104%, the inhibition at 30 µM worked out at 107% and the IC50 came to 123 nM.

Turning to `COc1c(C(C)(C)C)cc(C(=O)NC2(C(=O)NCCCN3CCOCC3)CCCCC2)cc1C(C)(C)C` [Compound 105, 3,5-di-tert-butyl-4-methoxy-N-(1-(3-morpholinopropylcarbamoyl)cyclohexyl)benzamide], the IC50 stood at 704 nM.

On to `CC(C)(C)c1cc(C(=O)NC2(C(=O)NCc3ccc(S(C)(=O)=O)cc3)CCOCC2)cc(C(C)(C)C)c1O` [Compound 14, 4-(3,5-di-tert-butyl-4-hydroxybenzamido)-N-(4-(methylsulfonyl)benzyl)tetrahydro-2H-pyran-4-carboxamide], for which the inhibition at 10 µM worked out at 80.7% and the inhibition at 30 µM was 81.9%.

`CC(C)(C)c1cc(C(=O)NC2(C(=O)Nc3ccccc3)CCCCC2)cc(C(C)(C)C)c1O` [Compound 111, 3,5-di-tert-butyl-4-hydroxy-N-(1-(phenylcarbamoyl)cyclohexyl)benzamide]: the inhibition at 10 µM was 71.8%, the inhibition at 30 µM came to 106% and the IC50 came out at 551 nM.

For `CN(C)c1ccc(CNC(=O)C2(NC(=O)c3cc(C(C)(C)C)c(O)c(C(C)(C)C)c3)CCCCC2)cc1` [Compound 7, 3,5-di-tert-butyl-N-(1-(4-(dimethylamino)benzylcarbamoyl)cyclohexyl)-4-hydroxybenzamide], the inhibition at 10 µM was determined as 99.3%, the inhibition at 30 µM came out at 102% and the IC50 amounted to 128 nM.

Turning to `CC(C)(C)c1cc(NC(=O)C2(NCc3ccc(F)cc3F)CCCCC2)cc(C(C)(C)C)c1` [Compound 42, N-(3,5-di-tert-butylphenyl)-1-(2,4-difluorobenzylamino)cyclohexanecarboxamide], the inhibition at 10 µM amounted to 70.6% and the inhibition at 30 µM stood at 80.2%.

Consider `CNC(=O)C1(NC(=O)c2cc(C(C)(C)C)nc(C(C)(C)C)c2)CCCCC1` [Compound 101, 2,6-di-tert-butyl-N-(1-(methylcarbamoyl)cyclohexyl)isonicotinamide], for which the IC50 worked out at 105 nM.

For `COc1c(C(C)(C)C)cc(C(=O)NC2(C(=O)N3CCN(C)CC3)CCCCC2)cc1C(C)(C)C` [Compound 104, 3,5-di-tert-butyl-4-methoxy-N-(1-(4-methylpiperazine-1-carbonyl)cyclohexyl)benzamide], the IC50 came out at 1020 nM.

Regarding `CC(C)(C)c1cc(C(=O)NC2(C(=O)NCc3ccccn3)CC2)cc(C(C)(C)C)n1` [Compound 21, 2,6-di-tert-butyl-N-(1-(pyridin-2-ylmethylcarbamoyl)cyclopropyl)isonicotinamide], the inhibition at 10 µM came to 97.1% and the half-inhibitory concentration (IC50) came out at 143 nM.

For `CC(C)(C)c1cc(C(=O)NC2(C(=O)N3CCCC3)CCCC2)cc(C(C)(C)C)n1` [Compound 92, 2,6-di-tert-butyl-N-(1-(pyrrolidine-1-carbonyl)cyclopentyl)isonicotinamide], the inhibition at 10 µM is 89.5%, the inhibition at 30 µM turned out to be 92.2% and the IC50 stood at 225 nM.

For `COc1c(C(C)(C)C)cc(CNC2(C(=O)NCc3ccccc3)CCCCC2)cc1C(C)(C)C` [Compound 72, N-benzyl-1-(3,5-di-tert-butyl-4-methoxybenzylamino)cyclohexanecarboxamide], the inhibition at 10 µM was 97.8%, the inhibition at 30 µM came to 97.4% and the half-maximal inhibitory concentration (IC50) was 145 nM.

On to `COc1ccc(CNC(=O)C2(NC(=O)c3cc(C(C)(C)C)nc(C(C)(C)C)c3)CCOCC2)cc1` [Compound 113, 2,6-di-tert-butyl-N-(4-(4-methoxybenzylcarbamoyl)tetrahydro-2H-pyran-4-yl)isonicotinamide], for which the inhibition at 10 µM was 79%, the inhibition at 30 µM was determined as 93% and the IC50 worked out at 59.4 nM.

Take `COc1ccc(CNC(=O)C2(NC(=O)c3cc(C(C)(C)C)c(OC)c(C(C)(C)C)c3)CCOCC2)cc1` [Compound 114, 4-(3,5-di-tert-butyl-4-methoxybenzamido)-N-(4-methoxybenzyl)tetrahydro-2H-pyran-4-carboxamide]: the inhibition at 10 µM worked out at 90.8%, the inhibition at 30 µM turned out to be 92.4% and the half-maximal inhibitory concentration (IC50) amounted to 32.4 nM.

Turning to `COc1ccc(CNC(=O)C2(NC(=O)c3cc(C(C)(C)C)cc(C(C)(C)C)c3)CCCCC2)cc1` [Compound 45, 3,5-di-tert-butyl-N-(1-(4-methoxybenzylcarbamoyl)cyclohexyl)benzamide], the inhibition at 10 µM came to 95.7%, the inhibition at 30 µM was 99.5% and the half-inhibitory concentration (IC50) was found to be 25.2 nM.

Turning to `CC(C)(C)c1cc(C(=O)NC2(C(=O)NCc3ccc(F)cc3)CCCCC2)cc(C(C)(C)C)c1` [Compound 49, 3,5-di-tert-butyl-N-(1-(4-fluorobenzylcarbamoyl)cyclohexyl)benzamide], the inhibition at 10 µM came to 103%, the inhibition at 30 µM amounted to 91.6% and the IC50 amounted to 44.2 nM.

In the case of `CC(C)(C)c1cc(C(=O)NC2(C(=O)NCc3ccc(NS(C)(=O)=O)cc3)CC2)cc(C(C)(C)C)c1O` [Compound 117, 3,5-di-tert-butyl-4-hydroxy-N-(1-(4-(methylsulfonamido)benzylcarbamoyl)cyclopropyl)benzamide], the inhibition at 10 µM amounted to 74.2%, the inhibition at 30 µM was 101% and the IC50 was determined as 1090 nM.

In the case of `CC(C)(C)c1cc(C(=O)NC2(C(=O)O)CCCCC2)cc(C(C)(C)C)c1` [Compound 34, 1-(3,5-di-tert-butylbenzamido)cyclohexanecarboxylic acid], the inhibition at 10 µM was determined as 68.2% and the inhibition at 30 µM is 82.3%.

`CC(C)(C)c1cc(C(=O)NC2(C(=O)Nc3ccccn3)CC2)cc(C(C)(C)C)c1O` [Compound 4, 3,5-di-tert-butyl-4-hydroxy-N-(1-(pyridin-2-ylcarbamoyl)cyclopropyl)benzamide]: the inhibition at 10 µM was 68%, the inhibition at 30 µM was 76% and the IC50 is 355 nM.

Regarding `CC(C)(C)c1cc(C(=O)NC2(C(=O)NCc3ccc(CN4CCOCC4)cc3)CCOCC2)cc(C(C)(C)C)n1` [Compound 24, 2,6-di-tert-butyl-N-(4-(4-(morpholinomethyl)benzylcarbamoyl)tetrahydro-2H-pyran-4-yl)isonicotinamide], the inhibition at 10 µM was 79.2% and the IC50 came out at 767 nM.

`CC(C)(C)c1cc(C(=O)NC2(C(=O)NCc3nccs3)CCCCC2)cc(C(C)(C)C)c1O` [Compound 13, 3,5-di-tert-butyl-4-hydroxy-N-(1-(thiazol-2-ylmethylcarbamoyl)cyclohexyl)benzamide]: the inhibition at 10 µM came out at 96.9%, the inhibition at 30 µM is 99.8% and the IC50 came out at 34.1 nM.

On to `COc1ccc(CNC(=O)C2(NC(=O)c3cc(C(C)(C)C)cc(C(C)(C)C)c3)CCCC2)cc1` [Compound 37, 3,5-di-tert-butyl-N-(1-(4-methoxybenzylcarbamoyl)cyclopentyl)benzamide], for which the inhibition at 10 µM is 93%, the inhibition at 30 µM stood at 95.8% and the IC50 stood at 153 nM.

In the case of `CC(C)(C)c1cc(C(=O)NC2(C(=O)N3CCOCC3)CCCC2)cc(C(C)(C)C)n1` [Compound 94, 2,6-di-tert-butyl-N-(1-(morpholine-4-carbonyl)cyclopentyl)isonicotinamide], the inhibition at 10 µM was determined as 96.6%, the inhibition at 30 µM was 87.2% and the IC50 turned out to be 329 nM.
